Measured values from US8629143B2, “Potassium channel modulators” (AbbVie Inc., priority 2009, dated 2014).

What was measured:
[1] = test system: Adult male Sprague-Dawley rats; test: Spinal nerve ligation (SNL) model of neuropathic pain; format: in vivo; settings: rat SNL model (L5/L6 ligation), about 30 mg/kg, tactile allodynia
Text: (§1) Adult male Sprague-Dawley rats (250-300 g body weight, Charles River Laboratories, Portage, Mich.) were used. Animal handling and experimental protocols were approved by the Institutional Animal Care and Use Committee (IACUC) at Abbott Laboratories. For all surgical procedures, animals were maintained under isoflurane anesthesia (4-5% to induce, 1-3% to maintain), and the incision sites were sterilized using a 10% povidone-iodine solution prior to and after surgeries.
Tactile (mechanical) allodynia was measured using calibrated von Frey filaments (Stoelting, Wood Dale, Ill.) as described in Chaplan, S. R., F. W. Bach, J. M. Pogrel, J. M. Chung and T. L. Yaksh, 1994, Quantitative assessment of tactile allodynia in the rat paw, J. Neurosci. Methods, 53, 55. Rats were placed into inverted individual plastic containers (20×12.5×20 cm) on top of a suspended wire mesh grid, and acclimated to the test chambers for 20 minutes. The von Frey filaments were presented perpendicularly to the plantar surface of the selected hind paw, and then held in this position for approximately 8 sec with enough force to cause a slight bend in the filament. Positive responses included an abrupt withdrawal of the hind paw from the stimulus, or flinching behavior immediately following removal of the stimulus. A 50% withdrawal threshold was determined using an up-down procedure (Dixon, W. J., 1980, Efficient analysis of experimental observations, Ann. Rev. Pharmacol. Toxicol., 20, 441). […] Tactile allodynia thresholds were also assessed in several control groups, including naive, sham-operated, and saline infused animals as well as in the contralateral paws of nerve-injured rats. To evaluate the anti-nociceptive effects, animals were administered vehicle or test compound and tactile allodynia was assessed 30 minutes after i.p. administration.
A model of spinal nerve ligation-induced (SNL model) neuropathic pain as originally described by Kim and Chung (Kim, S. H. and J. M. Chung, 1992, Pain 50, 355) was used to test a compound of the present application The left L5 and L6 spinal nerves of the rat were isolated adjacent to the vertebral column and tightly ligated with a 5-0 silk suture distal to the DRG, and care taken to avoid injury of the L4 spinal nerve. The same procedure was performed on Sham rats, but without nerve ligation. All animals were allowed to recover for at least one week and not more than three weeks prior to assessment of tactile allodynia.

[2] = target: T1, KCNQ 2/3 channels (HEK293 cells stably expressing human KCNQ2 and KCNQ3 subunits) (Homo sapiens, UniProt O43525+O43526); test: KCNQ2/3 channel activation, thallium flux FLIPR assay with BTC-AM dye; format: cell-based; settings: for Emax: HEK293, maximum response relative to the response produced by 10 μM retigabine (set at 100%), read-out: Max. %; for EC50: HEK293 cells expressing human KCNQ2 and KCNQ3, thallium flux, FLIPR
T1 construct: expressed in transfected cells; host or cells: HEK293
Method in brief: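 HEK293 cells stably expressing human KCNQ2/KCNQ3 were loaded with BTC-AM (3 μg/mL, 2 h, RT) and preincubated with compound for 4 min in pH 7.3 gluconate buffer containing 0.1 mM ouabain. Flux was triggered by 6 mM TlNO3/10 mM K2SO4 and read for 3 min; EC50 came from summed responses over basal, with maximum relative to 10 μM retigabine (100%).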

[3] = test system: Adult male Sprague-Dawley rats; test: Capsaicin-induced secondary mechanical hypersensitivity; format: in vivo; settings: rat, about 30 mg/kg i.p., tactile allodynia 30 minutes after dosing, 180 minutes post-capsaicin
Text: as §1
Rats were allowed to acclimate to the study room for 1 h. […] Secondary mechanical hyperalgesia was measured at the heel away from the site of injection at 180 minutes following capsaicin (Joshi et al 2006, Neuroscience 143, 587-596). […]
Tactile (mechanical) allodynia was measured using calibrated von Frey filaments (Stoelting, Wood Dale, Ill.) as described in Chaplan, S. R., F. W. Bach, J. M. Pogrel, J. M. Chung and T. L. Yaksh, 1994, Quantitative assessment of tactile allodynia in the rat paw, J. Neurosci. […] A 50% withdrawal threshold was determined using an up-down procedure (Dixon, W. J., 1980, Efficient analysis of experimental observations, Ann. Rev. Pharmacol. Toxicol., 20, 441). […] Tactile allodynia thresholds were also assessed in several control groups, including naive, sham-operated, and saline infused animals as well as in the contralateral paws of nerve-injured rats. […]
Tactile allodynia was measured as described above.

Row | Compound | Emax [2] [%] | EC50 [2] [nM] | change in paw withdrawal latency versus vehicle [1] | change in paw withdrawal latency versus vehicle [3]
1 | CC1(C)[C@@H]2C[C@H]1[C@H](CC(=O)Nn1nc(-c3ccc(Cl)cc3)c3ccccc3c1=O)C(F)(F)C2 [Example 88, N-[4-(4-chlorophenyl)-1-oxophthalazin-2(1H)-yl]-2-[(1S,2S,5R)-3,3-difluoro-6,6-dimethylbicyclo[3.1.1]hept-2-yl]acetamide] | 60 | 500 to 1000 | statistically significant change | –
2 | O=C(Cc1cc(F)cc(F)c1)Nn1nc(-c2ccccc2)c2c(c1=O)CCC2 [Example 188, 2-(3,5-difluorophenyl)-N-(1-oxo-4-phenyl-1,5,6,7-tetrahydro-2H-cyclopenta[d]pyridazin-2-yl)acetamide] | 131 | 1000 to 10000 | – | –
3 | O=C(CC12CC3CC(CC(C3)C1)C2)Nn1nc(-c2ccccc2)c2c(c1=O)CCC2 [Example 189, 2-(adamantan-1-yl)-N-(1-oxo-4-phenyl-1,5,6,7-tetrahydro-2H-cyclopenta[d]pyridazin-2-yl)acetamide] | 152 | 100 to 500 | – | –
4 | O=C(Cc1ccc(Cl)cc1)Nn1nc(-c2ccccc2)c2c(c1=O)CCC2 [Example 190, 2-(4-chlorophenyl)-N-(1-oxo-4-phenyl-1,5,6,7-tetrahydro-2H-cyclopenta[d]pyridazin-2-yl)acetamide] | 124 | 1000 to 10000 | – | –
5 | CSCC(=O)Nn1nc(C(F)(F)F)c2ccccc2c1=O [Example 191, 2-(methylthio)-N-[1-oxo-4-(trifluoromethyl)phthalazin-2(1H)-yl]acetamide] | 25 | > 10000 | – | –
6 | O=C(CSC12CC3CC(CC(C3)C1)C2)Nn1nc(C(F)(F)F)c2ccccc2c1=O [Example 192, 2-(adamantan-1-ylthio)-N-[1-oxo-4-(trifluoromethyl)phthalazin-2(1H)-yl]acetamide] | 155 | 100 to 500 | – | –
7 | O=C(CSC12CC3CC(CC(C3)C1)C2)Nn1nc(-c2ccccc2)c2ccccc2c1=O [Example 193, 2-(adamantan-1-ylthio)-N-(1-oxo-4-phenylphthalazin-2(1H)-yl)acetamide] | 161 | 100 to 500 | – | –
8 | O=C(Cc1ccc2c(c1)OCO2)Nn1nc(-c2ccc(Cl)cc2)c2ccccc2c1=O [Example 194, 2-(1,3-benzodioxol-5-yl)-N-[4-(4-chlorophenyl)-1-oxophthalazin-2(1H)-yl]acetamide] | 248 | 500 to 1000 | – | –

Now from value to compound, other results behind:

Row | Emax [2] [%] | EC50 [2] [nM] | Compound | change in paw withdrawal latency versus vehicle [1] | change in paw withdrawal latency versus vehicle [3]
9 | 138 | < 100 | O=C(C[C@H]1C[C@@H]2CC[C@H]1C2)Nn1nc(-c2ccc(C(F)(F)F)cc2)c2ccccc2c1=O (racemic) [Example 150, (±)-2-(exo-bicyclo[2.2.1]hept-2-yl)-N-{1-oxo-4-[4-(trifluoromethyl)phenyl]phthalazin-2(1H)-yl}acetamide] | statistically significant change | –
10 | 100 | 100 to 500 | O=C(Cc1ccc(Cl)cc1)Nn1nc(-c2ccc(Br)cc2)c2ccccc2c1=O [Example 3, N-[4-(4-bromophenyl)-1-oxophthalazin-2(1H)-yl]-2-(4-chlorophenyl)acetamide] | – | statistically significant change
11 | 205 | < 100 | O=C(CC12CC3CC(CC(C3)C1)C2)Nn1nc(-c2ccccc2)c2ccccc2c1=O [Example 17, 2-(1-adamantyl)-N-(1-oxo-4-phenylphthalazin-2(1H)-yl)acetamide] | – | statistically significant change
12 | 101 | 100 to 500 | O=C(Cc1ccccc1)Nn1nc(-c2ccc(Cl)cc2)c2ccccc2c1=O [Example 91, N-[4-(4-chlorophenyl)-1-oxophthalazin-2(1H)-yl]-2-phenylacetamide] | statistically significant change | –
13 | 120 | 100 to 500 | O=C(Cc1ccc(Cl)cc1)Nn1nc(-c2ccc(Cl)cc2)c2ccccc2c1=O [Example 117, 2-(4-chlorophenyl)-N-[4-(4-chlorophenyl)-1-oxophthalazin-2(1H)-yl]acetamide] | statistically significant change | –
14 | 178 | 100 to 500 | O=C(CC12CC3CC(CC(C3)C1)C2)Nn1nc(-c2ccc(Cl)cc2)c2c(F)ccc(F)c2c1=O [Example 183, 2-(adamantan-1-yl)-N-[4-(4-chlorophenyl)-5,8-difluoro-1-oxophthalazin-2(1H)-yl]acetamide] | – | –
15 | 144 | < 100 | O=C(CC12CC3CC(CC(C3)C1)C2)Nn1nc(-c2ccccc2)c2c(c1=O)CCCC2 [Example 185, 2-(adamantan-1-yl)-N-(1-oxo-4-phenyl-5,6,7,8-tetrahydrophthalazin-2(1H)-yl)acetamide] | – | –
16 | 136 | 100 to 500 | O=C(Cc1cc(F)cc(F)c1)Nn1nc(-c2ccccc2)c2c(c1=O)CCCC2 [Example 186, 2-(3,5-difluorophenyl)-N-(1-oxo-4-phenyl-5,6,7,8-tetrahydrophthalazin-2(1H)-yl)acetamide] | – | –
17 | 123 | 100 to 500 | O=C(Cc1ccc(Cl)cc1)Nn1nc(-c2ccccc2)c2c(c1=O)CCCC2 [Example 187, 2-(4-chlorophenyl)-N-(1-oxo-4-phenyl-5,6,7,8-tetrahydrophthalazin-2(1H)-yl)acetamide] | – | –
